# From paper PMC12040169 (PLOS Biology, 2025)
# Assay: in vitro
# Conditions: human, hela cells, % viability
row,SMILES,"viability at 28.5 h, 10 µM [%]"
1,Cc1ccc(C(=O)Nc2ccccc2C(=O)O)cc1S(=O)(=O)NCc1ccccc1 [CBK263212],98.7
2,CCCOC1CCCN(S(=O)(=O)c2cnc3ccsc3c2)C1 (centres unmarked) [CBK306367],75.5
3,Cc1cccc(CN2CCC(NC(=O)c3cccc4nn[nH]c34)CC2)c1 [CBK305411],92.1
4,O=S(=O)(Nc1nnc(C(F)(F)F)s1)c1ccc(Br)cc1 [CBK200047],89.6
5,Cn1cc(CCC(=O)N2CCc3[nH]c4ccc(Cl)cc4c3C2)cn1 [CBK304636],82
6,CCn1cc(-c2cncn2CCN(C)C2CCCC2)cn1 [CBK281551],90.7
7,O[C@@H]1C[C@@H](c2nc(-c3ccncc3)no2)N(Cc2ccc(F)cc2)C1 [CBK288838],94.3
8,O=C(c1cnn(C(=O)c2ccc3c(=O)n4c(nc3c2)CCC4)c1)c1ccccc1O [CBK295145],95.7
9,N#Cc1c(NC(=O)c2cc(S(=O)(=O)N3CCCCC3)c(Cl)cc2Cl)sc2c1CCCC2 [CBK264579],104
10,CC1(C)CC(=O)c2sc(NC(=O)c3cncnc3)nc2C1 [CBK144107],101
11,COc1ccc(-c2nc(O)cc(C(F)(F)F)n2)cc1 [CBK003515],86.3
12,O=C(N/N=C\c1cccs1)c1n[nH]c2c1CCCC2 [CBK261667],110
13,O=C(O)CCC(=O)N1CCN(S(=O)(=O)c2ccc(F)cc2)CC1 [CBK286956],93.2
14,Cc1ccc2[nH]c(C)c(CC(=O)N(C)CCN(C)C)c2c1 [CBK282674],105
15,CCN(C(=O)c1cnc2n(c1=O)CCS2)c1ccccc1 [CBK287384],103
16,CC(C)CC(=O)N1CCCn2nc(-c3ccncc3)cc2C1 [CBK288606],94.7
17,Nc1ccc(S(=O)(=O)NC2(C(F)(F)F)NC(=O)N(c3ccccc3Cl)C2=O)cc1 (centres unmarked) [CBK268003],107
18,C[C@H](C(=O)N1CCCC1)C1CC[C@@]2(C)Cc3sc(NC(=O)C4CC4)nc3[C@@H](C)[C@@H]2[C@H]1O (some centres unmarked) [CBK289432],103
19,CCCCCNC(=O)C1CCN(Cn2c(=O)oc3cc(Cl)ccc32)CC1 [CBK298290],86.3
20,Cc1nc(N)nc(NCCC2CCCN(C)C2)c1Cl (centres unmarked) [CBK307445],88.6
21,Cc1cccc(OCC(=O)Nc2sc3c(c2C(N)=O)CCC3)c1C [CBK269729],94.8

row,SMILES,"viability at 28.5 h, 10 µM [%]"
1,Cc1ccc(-n2sc(=O)n(CCc3ccccc3)c2=O)cc1 [CBK113496],110
2,Cc1cccc(=O)n1CCCNc1cc(C2CCOC2)nc(N)n1 (centres unmarked) [CBK307030],81.9
3,O=C(CN(Cc1ccc(F)cc1)S(=O)(=O)c1ccc(Cl)cc1)Nc1ccc2c(c1)OCCO2 [CBK265346],90.2
4,O=C(CN1C(=O)c2ccccc2C1=O)Nc1ccc(S(=O)(=O)N2CCCCCC2)cc1 [CBK266693],91.7
5,c1ccc(-c2ccc(COc3cncc(N4CCNCC4)n3)s2)nc1 [CBK008960G],85.4
6,O=C(COc1ccccc1)n1nc(-c2ccco2)nc1NCc1cccs1 [CBK269145],85.7
7,CN(Cc1ccc2ncccc2c1)C(=O)C1CN(S(=O)(=O)c2ccc(F)cc2)C1 [CBK285943],92.5
8,Cn1c(=O)n(Cc2ccccn2)c(=O)c2cnc(-c3ccncc3)nc21 [CBK288592],79
9,O=C1CCC(=O)N1CCOc1nccnc1OC1CCN(Cc2ccc(Cl)cc2)CC1 [CBK084338],108
10,O=C(NCc1ccccn1)c1cc2cc(F)ccc2[nH]1 [CBK107276],102
11,NS(=O)(=O)c1ccc(NC(=O)CSc2ccc([N+](=O)[O-])cn2)cc1 [CBK269002],95
12,Cc1nn(CCC#N)c(C)c1[C@@H]1C=C[C@@H](NC(=O)NC(C)C)C1 [CBK289172],89.2
13,O=C(NCC1CCCCC1)C1(Cc2cccc(-c3cccnc3)c2)CCOCC1 [CBK285607],97.5
14,CC(=O)Oc1cc(Cl)ccc1C(=O)Nc1nnc(C(F)(F)F)s1 [CBK017569],84
15,Cc1ccc(S(=O)(=O)Nc2cccc3ccccc23)c([N+](=O)[O-])c1 [CBK267381],71.9
16,Cc1sc(-c2ccc(C(F)(F)F)cc2)nc1COc1cncc(N2CCNCC2)n1 [CBK172383G],85.6
17,CC(C#N)(NC(=O)COc1ncnc2sc3c(c12)CCC3)C1CC1 (centres unmarked) [CBK306333],88.1
18,CC1(C)O[C@@H]2O[C@@H](C(O)CNC(=O)c3ccccc3)[C@@H](NC(=O)c3ccccc3)[C@@H]2O1 (some centres unmarked) [CBK008727],101
19,CC(C)C(=O)Nc1cc2ccccc2c(-c2ccc(N(C)C)cc2)n1 [CBK085776],90.6
20,Cc1ccccc1NC(=O)Nc1cccc(F)c1 [CBK105831],88.3
21,CC(C)NS(=O)(=O)c1ccc(NC(=O)Cc2cccc3ccccc23)cc1 [CBK268102],94.8

row,SMILES,"viability at 28.5 h, 10 µM [%]"
1,O=C(NCCCN1CCc2ccccc2C1)C1CC1c1ccco1 (centres unmarked) [CBK305257],91.8
2,O=C1CCCN1CCCNC(=O)N1CCCC(CO)C1 (centres unmarked) [CBK156063],94.3
3,Nc1cccc(-c2cncc(NCC3CCOCC3)n2)c1 [CBK037221],96.8
4,Cc1ccc(N(CC(=O)N/N=C/C(C)C)S(=O)(=O)c2ccccc2)c(C)c1 [CBK262397],92.5
5,CCOc1ccc(S(=O)(=O)N2CCCN(Cc3ccc(F)cc3F)CC2)c2cccnc12 [CBK062757],109
6,Cc1cc2ccccc2n2c(SCC(=O)Nc3nsc(-c4ccccc4)n3)nnc12 [CBK265673],116
7,O=C(COc1ccccc1)NC(=S)Nc1cccc(-c2nc3ccccc3s2)c1 [CBK264360],107
8,COCCNc1nc(-c2cccs2)cn2ccnc12 [CBK066408],99.3
9,Cc1nn(CCC(=O)NC2CCOc3ccccc32)c(C)c1Cl (centres unmarked) [CBK281684],96.7
10,Cn1c(=O)c2c(ncn2Cc2noc(-c3ccoc3)n2)n(C)c1=O [CBK304945],86.3
11,CCOc1ccccc1C(=O)N1CCC(c2cc(C(=O)NC(C)C)c3ccccc3n2)C1 (centres unmarked) [CBK285918],106
12,CCC1CN(CC(=O)NCc2ccc(OCC(N)=O)cc2)CCO1 (centres unmarked) [CBK305774],102
13,Cc1cc(C)cc(NC(=O)c2ccccc2NS(=O)(=O)c2cccc(Cl)c2)c1 [CBK113887],94.9
14,CCN(CC)CCNC(=O)c1cc(O)nc2ccccc12 [CBK269261],99.6
15,O=C(Nc1nc(-c2cccc([N+](=O)[O-])c2)cs1)c1ccc(S(=O)(=O)N2CCCC2)cc1 [CBK102813],86.5
16,CCOC(=O)c1[nH]c2ccccc2c1NS(=O)(=O)c1ccc(C)c([N+](=O)[O-])c1 [CBK047427],97.6
17,Cc1ccc(C2C(C(=O)c3ccc(Cl)cc3)=C(O)C(=O)N2CCCN2CCOCC2)o1 (centres unmarked) [CBK264514],92.6
18,COCCN(CC1CC1)C(=O)NCc1cccc(Cl)c1 [CBK304368],93.4
19,O=C(N[C@H]1CCN2C(=O)N(c3cccc4nsnc34)C(=O)[C@@H]2C1)c1ccnc(Cl)c1 [CBK289545],91.2

# Same assay, conditions: human, hela cells, % viability, bulk resorufin, single well
row,SMILES,"viability at 28.5 h, 10 µM [%]"
1,Cc1ccc(Cn2nc(C(=O)Nc3ccc4c(c3)OCO4)c3ccccc32)cc1 [CBK047847],87
